Data from patent US20220135540A1, “POLYMORPHS OF AN FXR AGONIST” (Eli Lilly and Company, priority 2020, published 2022).
Blank lines part the entries; values can stand above or below the compound they belong to.

Columns and labels:
[1] = Tissue distribution (liver versus plasma and other tissues); type: in vivo; settings: liver relative to plasma, heart and skin, liver vs plasma, kidney, lungs, read-out: concentration in the liver relative to plasma, kidney, lungs, heart, and skin
Text: Compound I is preferentially distributed to the liver, which, without being bound by theory, would allow the compound to reach its FXR target in the liver with fewer off-target adverse effects. For example, Compound I has an approximately 20-fold higher concentration in the liver than in the plasma, kidney, lungs, heart, and skin. This trait would likely be particularly beneficial for vulnerable populations, such as children, the elderly, and people with comorbidities.

[2] = Moisture sorption analysis (MSA); type: physicochemical; settings: for hygroscopicity (overall, from moisture sorption data): 5% to 95% RH; for weight change (loss) between ~95% RH and ~5% RH: desorption step ~95% to ~5% RH; for weight loss upon equilibration at ~5% RH: moisture sorption; for weight change (gain) between ~5% and ~95% RH: sorption step ~5% to ~95% RH
Experimental: MSA analyses were performed using a VTI SGA-100 Vapor Sorption Analyzer. Sorption and desorption data were collected over a range of 5% to 95% relative humidity (RH) at 10% RH intervals under a nitrogen purge. Samples were not dried prior to analysis. Equilibrium criteria used for analysis were less than 0.0100% weight change in 5 minutes, with a maximum equilibration time of 3 hours if the weight criterion was not met. Data were not corrected for the initial moisture content of the samples. NaCl and PVP were used as calibration standards.

[3] = Solid form stability when stressed at high relative humidity; type: physicochemical; settings: ~94% RH for 10 days
Experimental: Polymorphic Form I of Compound I was obtained by slurrying of Compound I in ethyl acetate or methanol at room temperature, or in a mixture IPA:water 1:1 at ˜58° C. Additionally, Form I was obtained by slow cooling of a solution of Compound I in acetonitrile.

[4] = Slurry interconversion of polymorphic forms; type: physicochemical
Experimental: Slurry interconversion experiments were performed at temperatures ranging from room temperature to ˜81° C. Solvent systems used for the study were nitromethane, acetonitrile, and a THF/heptane 1:2 (v/v) mixture.

SMILES: Cn1cc(C(=O)O)c2ccc(N3CCC(OCc4c(-c5c(Cl)cccc5Cl)noc4C4CC4)CC3)cc21 [Compound I, 6-(4-((5-cyclopropyl-3-(2,6-dichlorophenyl)isoxazol-4-yl)methoxy)piperidin-1-yl)-1-methyl-1H-indole-3-carboxylic acid]
Kp [1]: ~20

SMILES: Cn1cc(C(=O)O)c2ccc(N3CCC(OCc4c(-c5c(Cl)cccc5Cl)noc4C4CC4)CC3)cc21 [Form I, 6-(4-((5-cyclopropyl-3-(2,6-dichlorophenyl)isoxazol-4-yl)methoxy)piperidin-1-yl)-1-methyl-1H-indole-3-carboxylic acid]
hygroscopicity (overall, from moisture sorption data) [2]: low hygroscopicity
weight change (loss) between ~95% RH and ~5% RH [2]: ~0.4 wt %
weight loss upon equilibration at ~5% RH [2]: ~0.1 wt %
weight change (gain) between ~5% and ~95% RH [2]: ~0.4 wt %
stability as a solid form under humidity stress [3]: remained stable

Second part, the compound after the results:

hygroscopicity (overall, from moisture sorption data) [2]: low hygroscopicity
weight change (loss) between ~95% RH and ~5% RH [2]: negligible weight change
weight loss upon equilibration at ~5% RH [2]: ~0.6 wt %
weight change (gain) between ~5% and ~95% RH [2]: negligible weight change
relative stability among polymorphic forms ([4]; ambient temperature and elevated temperature up to ~81° C.): most stable form
SMILES: Cn1cc(C(=O)O)c2ccc(N3CCC(OCc4c(-c5c(Cl)cccc5Cl)noc4C4CC4)CC3)cc21 [Form II, 6-(4-((5-cyclopropyl-3-(2,6-dichlorophenyl)isoxazol-4-yl)methoxy)piperidin-1-yl)-1-methyl-1H-indole-3-carboxylic acid]

XRPD Result of slurry interconversion ([4]; ACN, RT, 1 day, ~5 mg each): Form II
XRPD Result of slurry interconversion ([4]; Nitromethane, RT, 3 days, ~5 mg each): Form II
XRPD Result of slurry interconversion ([4]; Nitromethane, ~78-81° C., 3 days, ~5 mg each): Form II
SMILES: Cn1cc(C(=O)O)c2ccc(N3CCC(OCc4c(-c5c(Cl)cccc5Cl)noc4C4CC4)CC3)cc21 [I, II, III, IV, V, VI, VII]

XRPD Result of slurry interconversion ([4]; ACN, ~66-69° C., 1 day, ~5 mg each): Form II
SMILES: Cn1cc(C(=O)O)c2ccc(N3CCC(OCc4c(-c5c(Cl)cccc5Cl)noc4C4CC4)CC3)cc21 [I, II, III, V]

XRPD Result of slurry interconversion ([4]; THF/heptane 1:2, ~61° C., 1 day, ~15 mg each): Form II
XRPD Result of slurry interconversion ([4]; THF:heptane 1:2, RT, 1 day, ~15 mg each): Form II
SMILES: Cn1cc(C(=O)O)c2ccc(N3CCC(OCc4c(-c5c(Cl)cccc5Cl)noc4C4CC4)CC3)cc21 [I, II, VI]
